Each structure is given as a SMILES string.

The test system of this data set is fibroblasts. As to the kind of experiment: fibroblast cytotoxicity test (MTT). It is filed as cell-based. An excerpt: In FIG. 3, the following meanings apply: Mic: miconazole, Tri: trimetoprim, Rif: rifampicin, Irg: Irgasan, Gen: gentamicin, Fus: fusidic acid, Oct: octenidine, Ben: benzylpenicillin, Chl: chlorohexidine, Cli: clindamycine.

On to `Oc1cc(Cl)ccc1Oc1ccc(Cl)cc1Cl` [Irgasan, 5-chloro-2-(2,4-dichlorophenoxy)phenol], for which the “maximum concentration up to which fibroblasts are hardly inhibited and the substance is non-toxic” value (FIG. 3, MTT) is at most 10 µg/mL. Further, the “adverse affection in fibroblast-cytotoxicity test” value (Irgasan release (cm^2) of 2-4 mg/I, release rates for inhibition zones of about 20 mm) was “only a minimum adverse affection”.

For the origin of these results see patent publication US12383699B2, “Catheter attachment made of plastic that contains molecularly dispersed polychlorinated phenoxyphenol (PCPP)” (priority 2017, dated 2025).
